Reference: the METLIN SMRT retention time set (Domingo-Almenara et al. 2019)

Assay: gradient 5% acetonitrile 3 min, to 50% in 2 min, to 85% in 15 min, held 3 min, 100 µL/min
Conditions: column: Zorbax Extend-C18 2.1 x 50 mm; eluents: water / acetonitrile, 0.1% formic acid
How it was run: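 Retention times come from adduct peaks that were picked computationally and then checked by hand. The standards, pure and pooled in mixtures of ~100 molecules, were run on a Zorbax Extend-C18 column (2.1 × 50 mm, 1.8 μm) at 100 μL/min with water and acetonitrile, each with 0.1% formic acid. Detection was by quadrupole time-of-flight mass spectrometry in positive and negative ionization mode, with a dead volume of 40 μL and a dwell volume of 900 μL.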

Row | RP-LC retention time [s] | Structure (SMILES)
1 | 932 | Cc1nc(-c2csc(S(=O)(=O)N3CCCC(C(=O)NCCc4sccc4C)C3)c2)no1 (centres undefined)
2 | 796 | COc1cccc(-c2cc3c(=O)n(CC(O)c4cccc(C#N)c4)ccn3n2)c1 (centres undefined)
3 | 747 | COc1ccc(NC(=O)C2CCc3nc(N4CCC(C)CC4)ncc3C2)c(C)c1 (centres undefined)
4 | 839 | CN(Cc1ccsc1)C(=O)Nc1ccc(F)cc1
5 | 843 | CC(C)(C)C1CCc2[nH]nc(C(=O)NC3CC3)c2C1 (centres undefined)
6 | 612 | COC(=O)c1ccccc1NC(=O)Cn1c(N2CCCC2)nc(C)cc1=O
7 | 652 | Cc1nc(C)c(-c2nnc(NC(=O)C3CC(=O)N(c4ccc(F)cc4)C3)o2)s1 (centres undefined)
8 | 868 | Cc1nn(-c2ccc(Cl)cc2)c(C)c1S(=O)(=O)N1CCC(C(=O)N2CCCC2)CC1
9 | 653 | Cn1c(=O)c(=O)n(C)c2cc(NC(=O)c3cccs3)ccc21
10 | 1050 | Cc1ccccc1CNC(=O)C1(C)CCN(S(=O)(=O)c2ccc(Br)s2)CC1
11 | 858 | CCc1ccc(S(=O)(=O)N2CC(F)(F)C[C@H]2c2nnc(C)o2)cc1
12 | 600 | CC(NC(=O)C(=O)N1CCOCC1)C(c1cccs1)N1CCN(Cc2ccccc2)CC1 (centres undefined)
13 | 692 | O=C(Nc1cccn2c(C3CCC3)nnc12)c1cnccn1
14 | 782 | Cc1[nH]c2ccccc2c1C(=O)C(=O)Nc1ccc2c(c1)OCO2
15 | 936 | COc1ccc(-c2noc(C3CCCN3C(=O)COc3ccccc3)n2)cc1 (centres undefined)
16 | 818 | Cc1cc(C)cc(NC(=O)C2CCN(C(=O)C3Sc4ccccc4NC3=O)CC2)c1 (centres undefined)
17 | 745 | Cc1cccc(C)c1NC(=O)CN1C(=O)NC2(CCCCC2)C1=O
18 | 904 | COc1ccc(-c2ccnc3nc(CC(C)C)nn23)c(F)c1
19 | 1130 | Cc1nc(-n2cccc2)sc1C(=O)NCc1ccc(C(C)C)cc1
20 | 744 | CCSc1nnc(-c2nn(C)c3c2CN(C(=O)c2cccc(F)c2)CC3)n1C
21 | 700 | CCn1cnc(S(=O)(=O)N2CCC(C(=O)NCc3ccc(F)cc3)CC2)c1
22 | 938 | COc1ccc(NC(=O)Cn2c(C)nc3c(sc4nc(-c5ccccc5)ccc43)c2=O)cc1OC

Row | RP-LC retention time [s] | Structure (SMILES)
23 | 645 | O=C(NCc1ccc(F)cc1)C1CCN(c2nnc3c(Cl)cccn23)CC1
24 | 988 | CCCS(=O)(=O)N1CC(=O)N(c2ccc(F)cc2C)C(C)(C(=O)NC2CCCCCC2)C1 (centres undefined)
25 | 1160 | O=C(Nc1ccccc1)N1CC(Oc2cccc(-c3nc(-c4ccccc4)no3)c2)C1
26 | 1050 | COCCn1c(C)cc(O)c(C(c2ccc(SC)cc2)N2CCC(C)CC2)c1=O (centres undefined)
27 | 610 | COc1ccc(Nc2nccc(NCCO)n2)cc1
28 | 819 | CCCCNC(=O)C1CCN(c2ccc(Sc3cc(C)ccc3C)nn2)CC1
29 | 700 | Cc1nc2nc(-c3ccccc3)nn2c(C)c1CC(=O)NC(C)C
30 | 644 | Cc1ccc(-c2nnc(N3CCC(C(=O)N4CCN(C5CCCCC5)CC4)CC3)o2)cc1
31 | 966 | O=C(NCCc1c[nH]c2ccccc12)c1cc(S(=O)(=O)N2CCCCC2)ccc1Cl
32 | 638 | Cc1nn(C2CCS(=O)(=O)C2)c(C)c1S(=O)(=O)NCc1ccco1 (centres undefined)
33 | 623 | O=C(c1ccc(Cl)s1)N1CCCn2nc(-c3ccncc3)cc2C1
34 | 666 | CC1CN(Cc2ccccc2)c2nc3c(c(=O)n(CCN4CCOCC4)c(=O)n3C)n2C1 (centres undefined)
35 | 886 | CCCn1c(-c2cccc(C(=O)NC(CC)c3cccs3)c2)nc2cccnc21 (centres undefined)
36 | 779 | CC(C)(C)C1CCc2c(sc3nc(CCC(=O)N4CCC(C(N)=O)CC4)[nH]c(=O)c23)C1 (centres undefined)
37 | 956 | O=C(c1nnc(-c2ccc(S(=O)(=O)N3CCCCC3)cc2)o1)N1CCCCC1
38 | 834 | Cn1cnc2c(C(=O)NCc3ccco3)nn(-c3ccc(Cl)cc3)c2c1=O
39 | 936 | Cc1cccc(CNC(=O)C2=C3CCCN3c3ccc(F)cc3S2(=O)=O)c1
40 | 902 | CC1CC(C)CN(c2nccn3c(=O)n(CC(=O)Nc4ccc(F)cc4F)nc23)C1 (centres undefined)
41 | 993 | COCCn1cc2c3c(cccc31)CN(C(=O)Nc1cc(Cl)c(OC)cc1OC)CC2
42 | 618 | Cc1ccc(NC(=O)c2ccc(CN3CCN(C)CC3)cc2)cc1Nc1nc(-c2cccnc2)cs1
43 | 667 | Cc1csc2nc(-c3cccc(NC(=O)c4ccccc4[N+](=O)[O-])c3)cn12
44 | 581 | CCN(CC)CCCNC(=O)c1cc2n(n1)CC(C)(C(=O)NCc1ccccc1)N(C)C2=O (centres undefined)

Row | RP-LC retention time [s] | Structure (SMILES)
45 | 691 | COc1ccc(CCNC(=O)CN2C(=O)NC3(CCCCC3)C2=O)cc1OC
46 | 729 | CC(C)CNC(=O)c1cc(=O)[nH]c2ccccc12
47 | 634 | CNC(=O)C1CCCN(c2nc3ncn(CC(=O)Nc4ccc(F)cc4)c(=O)c3s2)C1 (centres undefined)
48 | 753 | Cc1cc(C)n2nc(SCC(=O)Nc3ccccc3C(F)(F)F)nc2n1
49 | 747 | CCOC(=O)Nc1nc2c(s1)CN(S(=O)(=O)c1c(C)noc1C)CC2
50 | 872 | Cc1cc(=O)n(CC(=O)NC(C)CCc2ccccc2)c(N2CCc3ccccc3C2)n1 (centres undefined)
51 | 609 | CCn1nccc1C(=O)N1CCN(C(=O)N2C[C@H]3C[C@H](C2)[C@H]2CCCC(=O)N2C3)CC1
52 | 1090 | CC1(C(=O)NCc2ccccc2)CN(S(=O)(=O)c2ccccc2)CC(=O)N1CCC1=CCCCC1 (centres undefined)
53 | 912 | Cc1ccc(CNC(=O)C2(C)CCCN(C(=O)Nc3cc(C)cc(C)c3)C2)cc1 (centres undefined)
54 | 885 | CCc1ccc(N(CC)C(=O)Cn2cnc3nc4c(cc3c2=O)CCCC4)cc1
55 | 1010 | CCCc1ccc(S(=O)(=O)N2CCC(n3c(-c4ccco4)nc4cccnc43)C2)cc1 (centres undefined)
56 | 673 | Cc1ccc(N2CC(C(=O)N(C)C)CC2=O)cc1 (centres undefined)
57 | 1220 | COc1cccc(-n2c(=O)c(C(=O)Nc3ccc(F)cc3F)c(O)c3cccnc32)c1
58 | 661 | CCc1ccc(NC(=O)Cn2c(N3CCCCC3)nc(C)cc2=O)cc1
59 | 1130 | Cc1nc(C)c(C(=O)N2CC(Oc3ccc(-c4nc(-c5ccccc5)no4)cc3)C2)s1
60 | 574 | O=C(NCCOc1cccc2cccnc12)c1cccc(-n2cnnn2)c1
61 | 757 | O=C(NCc1ccccc1C(F)(F)F)c1cn2ccccc2n1
62 | 693 | O=C1NC(C(=O)Nc2ccc(F)c(F)c2)Cn2cccc21 (centres undefined)
63 | 880 | Cc1c(Cl)cccc1-n1ccn2cc(-c3ccccc3)nc2c1=O
64 | 746 | COCCn1ccc2nc(C)c(C(=O)Nc3cccc(SC)c3)cc2c1=O
65 | 870 | O=C(CN1C(=O)CCc2cc(Br)ccc21)NCCc1ccccc1
66 | 715 | Cc1ccn(-c2ccc(C(=O)NC(C)C)cn2)n1

Row | RP-LC retention time [s] | Structure (SMILES)
67 | 695 | Cc1noc2nc(CCC(=O)NCCCN3CCc4ccccc4C3)nc(N3CCCCCC3)c12
68 | 860 | CCCCc1ccc(NC(=O)CSc2ccc(N3CCCC(C(=O)NCCC)C3)nn2)cc1 (centres undefined)
69 | 861 | COc1ccc(OCC(=O)Nc2ccc3c(c2)N(C(=O)c2ccco2)CCC3)cc1
70 | 760 | O=C(Cc1cccn1-c1ccc(F)cc1)N1CCOCC1
71 | 631 | CCNC(=O)NCCc1cn(CC(C)C)c2ncccc12
72 | 746 | CN1C(=O)c2cccnc2Sc2cc(C(=O)NCc3ccccc3)ccc21
73 | 808 | COc1ccc(-c2cc(C(=O)N(C)C)c(C)n2C)cc1
74 | 763 | COc1ccccc1N1CCN(C(=O)CCc2nnc3c4cc(-c5ccccc5)nn4ccn23)CC1
75 | 585 | CCCCS(=O)(=O)N1CCN(c2ccc(Nc3cc(C)ccn3)nn2)CC1
76 | 722 | CC(C)n1cnc(S(=O)(=O)N2CCC(C(=O)Nc3ccc4c(c3)OCO4)CC2)c1
77 | 662 | CC(NC(=O)c1cc(-c2ccccc2)cn1C)c1cccnc1 (centres undefined)
78 | 561 | O=C(NCCN1CCOCC1)C1CCc2sc(C(=O)N3CCOCC3)cc2C1 (centres undefined)
79 | 1270 | Cc1nc2c(sc3nc(-c4ccccc4)ccc32)c(=O)n1CC(=O)Nc1cc(F)cc(F)c1
80 | 805 | COc1ccccc1NC(=O)C1CCCN(c2ncnc3c2nc2n3CCCCC2)C1 (centres undefined)
81 | 1050 | CCn1cc2c3c(cccc31)CN(C(=O)Nc1cccc(C)c1)CC2
82 | 730 | COCCCNC(=O)N1CCCN(C2=NS(=O)(=O)C(c3ccc(C)cc3)=C2C)CC1
83 | 647 | Cc1cc(C)n2nc(SCC(=O)NCc3cccs3)nc2n1
84 | 691 | CN(C)C(=O)C1CCN(S(=O)(=O)Cc2ccc(F)cc2)CC1
85 | 790 | Cc1nn(-c2ccc(F)cc2)c(C)c1S(=O)(=O)N1CCC(C(=O)N2CCCC2)CC1
86 | 1040 | O=C(Cc1c(F)cccc1Cl)Nc1nc(-c2ccccc2)cs1
87 | 711 | Cc1ccn2cc(-c3ccc(NC(=O)Nc4ccc(Cl)cc4)cc3)nc2n1
88 | 1220 | Cc1cccc(-c2nc(Cn3nnc(-c4nc(-c5cccs5)no4)c3C)c(C)o2)c1

Row | Structure (SMILES) | RP-LC retention time [s]
89 | C=CCN1CC[C@]23CCCCC2[C@H]1Cc1ccc(O)cc13 (some centres undefined) | 691
